Results: patent US20180222922A1, “RADIOFLUORINATED 7-AMINO-5-THIO-THIAZOLO[4,5-D]PYRIMIDINES FOR IMAGING FRACTALKINE RECEPTOR (CX3CR1)” (THE JOHNS HOPKINS UNIVERSITY, priority 2015, published 2018)

Assays:
CX3CR1 = target: T1, CX3CR1 (Homo sapiens, UniProt P49238); details: binding affinity, reported; cited from earlier work
T1 sequence (P49238 1-355): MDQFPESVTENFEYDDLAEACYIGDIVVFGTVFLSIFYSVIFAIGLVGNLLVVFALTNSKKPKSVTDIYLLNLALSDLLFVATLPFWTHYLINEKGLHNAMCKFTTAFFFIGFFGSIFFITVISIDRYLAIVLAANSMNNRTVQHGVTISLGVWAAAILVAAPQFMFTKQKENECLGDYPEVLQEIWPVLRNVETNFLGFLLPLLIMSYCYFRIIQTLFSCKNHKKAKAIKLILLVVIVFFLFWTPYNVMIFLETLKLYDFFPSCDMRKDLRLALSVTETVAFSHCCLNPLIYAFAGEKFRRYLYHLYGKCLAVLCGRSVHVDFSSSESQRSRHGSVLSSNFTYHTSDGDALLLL

CXCR2 = target: T2, CXCR2 (Homo sapiens, UniProt P25025); details: cited from earlier work; for Ki: binding affinity, reported
T2 sequence (P25025 1-360): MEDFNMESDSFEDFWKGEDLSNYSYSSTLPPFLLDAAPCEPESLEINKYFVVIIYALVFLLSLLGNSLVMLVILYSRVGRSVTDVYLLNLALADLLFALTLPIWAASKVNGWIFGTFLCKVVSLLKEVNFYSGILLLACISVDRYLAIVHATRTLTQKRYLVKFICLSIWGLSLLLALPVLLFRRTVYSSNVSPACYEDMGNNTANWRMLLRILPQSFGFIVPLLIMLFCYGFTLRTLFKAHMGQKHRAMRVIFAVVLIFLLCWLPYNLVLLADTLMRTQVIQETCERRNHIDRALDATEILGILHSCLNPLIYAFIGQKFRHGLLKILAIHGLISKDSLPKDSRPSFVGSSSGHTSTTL

[1] = small animal PET imaging of 2-[18F]FBTTP in healthy mice; assay type: in vivo; details: 350 μCi via tail vein, PET at 10 min, 30 min, 1 hour and 2 hours post-injection
Protocol: (R)-2-((2-amino-5-mercaptothiazolo[4,5-d]pyrimidin-7-yl)amino)-4-methylpentan-1-ol was synthesized as previously reported (Karlstrom et al., 2013) and alkylated with 2-[^18F]fluoro-benzylbromide to produce 2-[^18F]FBTTP. 2-[^18F]fluorobenzylbromide was prepared by a one-pot microwave radiofluorination of 2-formyl-N,N,N-trimethylbenzenanilinium triflate followed by sodium borohydride reduction, and bromination with 48% HBr using a procedure analogous to that reported for the preparation of 4-[^18F]fluoro-benzylbromide (Cho et al., 2012; Ravert et al., 2014). 2-[^18F]FBTTP (350 μCi) was injected via the tail vein of healthy mice and imaged using small animal PET. Images were collected at 10, 30, 60, and 120 min post-injection. 2-[^18F]FBTTP was prepared in a decay corrected yield of 10.2% in a specific activity of 1500 Ci/mmol (55,500 GBq/mmol) in a total synthesis time of 110 min.
To evaluate in vivo pharmacokinetics of 2-[^18F]FBTTP, 350 μCi of the radiotracer was formulated in 200 μL of saline with 10% ethanol and injected into healthy mice via the tail vein. The images were collected at 10 min, 30 min, 1 hour and 2 hours post-injection.

SMILES: CC(C)C[C@H](CO)Nc1nc(SC(C)c2ccccc2F)nc2nc(N)sc12 (stereo partly drawn) [Compound 9e, (2R)-2-((2-amino-5-((1-(2-fluorophenyl)ethyl)thio)thiazolo[4,5-d]pyrimidin-7-yl)amino)-4-methylpentan-1-ol]
- Ki (CX3CR1): 4.7 nM
- Ki (CXCR2): 1400 nM

SMILES: CC(C)CC(CO)Nc1nc(SCc2ccccc2[18F])nc2nc(N)sc12 (centres unmarked) [2-[^18F]FBTTP, 2-((2-amino-5-((2-[18F]fluorobenzyl)thio)thiazolo[4,5-d]pyrimidin-7-yl)amino)-4-methylpentan-1-ol]
- in vivo pharmacokinetics [1]: favorable in vivo pharmacokinetics

SMILES: CC(C)C[C@H](CO)Nc1nc(SCc2ccc(Br)cc2F)nc2nc(N)sc12 [Compound 9f, (R)-2-((2-amino-5-((4-bromo-2-fluorobenzyl)thio)thiazolo[4,5-d]pyrimidin-7-yl)amino)-4-methylpentan-1-ol]
- Ki (CXCR2): 1400 nM

SMILES: CC(C)C[C@H](CO)Nc1nc(SCc2ccccc2F)nc2nc(N)sc12 [Compound 9d, (R)-2-((2-amino-5-((2-fluorobenzyl)thio)thiazolo[4,5-d]pyrimidin-7-yl)amino)-4-methylpentan-1-ol]
- selectivity over CXCR2 (CXCR2; CX3CR1 over CXCR2): 18 fold
